How the values were obtained:
[1] = test system: PrP^Sc in GT1 cells chronically infected with 22L prion strain (ScGT1 22L); type: cell-based, mouse; details: ScGT1 cells infected with 22L prion strain, drug 20 μM, 4 days, vs vehicle control
[2] = test system: PrP^Sc in GT1 cells chronically infected with RML prion (ScGT1); type: cell-based, mouse; details: drug 20 μM, 4 days, vs vehicle control, densitometry normalized to β-actin
[3] = test system: PrP^Sc in N2a cells chronically infected with RML prion strain (ScN2a); type: cell-based, mouse
[4] = test system: N2a, ScN2a, GT1, ScGT1 cells

| Compound | reduction of PrP^Sc levels [1] | reduction of PrP^Sc accumulation/levels [2] | reduction in PrP^Sc levels ([3]; RML-infected ScN2a cells, drug 20 μM, 4 days, vs vehicle control) | PrP^Sc reduction with compound dissolved in different drug vehicles ([3]; ScN2a cells, vehicles PBS, H2O, NaCl and DMSO) | citotoxicity assessment [4] |
| --- | --- | --- | --- | --- | --- |
| Nc1c(C(=O)C2CCNCC2)cnn1-c1ccc(OC(F)(F)F)cc1 [Compound 5, [5-Amino-1-(4-trifluoromethoxy-phenyl)-1H-pyrazol-4-yl]-piperidin-4-yl-methanone] | 35% | about 60% | 60% | able to reduce PrP^Sc in all drug vehicles tested | – |
| Nc1c(C(=O)c2c[nH]c3ccccc23)cnn1-c1ccccc1 [Compound 3, (5-Amino-1-phenyl-1H-pyrazol-4-yl)-(1H-indol-3-yl)-methanone] | – | – | – | – | discarded |
| Nc1c(C(=O)c2ccc[nH]2)cnn1-c1ccc(F)cc1 [Compound G] | – | about 50% | – | – | – |

Reference: patent publication US20210093626A1 (priority 2018, published 2021)
